# Results published in doi:10.1101/2021.04.08.439011v1 (biorxiv, 2021).
# Tests used:
# MKNK1 = MKNK1 (Homo sapiens, UniProt Q9BUB5); conditions: 1 µM; binder
# MKNK2 = MKNK2 (Homo sapiens, UniProt Q9HBH9); conditions: 1 µM; binder
# ARK5 = ARK5 (Homo sapiens, UniProt O60285); conditions: 1 µM; binder
# JAK3 = JAK3 (Homo sapiens, UniProt P52333); conditions: JH1 domain catalytic; binder
# ACVR2A = ACVR2A (Homo sapiens, UniProt P27037); conditions: 1 µM; binder
# MAP4K5 = MAP4K5 (Homo sapiens, UniProt Q9Y4K4); conditions: 1 µM; binder
# CDK19 = CDK19 (Homo sapiens, UniProt Q9BWU1); conditions: 1 µM; binder
# BTK = BTK (Homo sapiens, UniProt Q06187); conditions: 1 µM; binder
# EPHA7 = EPHA7 (Homo sapiens, UniProt Q15375); conditions: 1 µM; binder
# ASK1 = ASK1 (Homo sapiens, UniProt Q99683); conditions: 1 µM; binder
# SNRK = SNRK (Homo sapiens, UniProt Q9NRH2); conditions: 1 µM; binder
# ERK1 = ERK1 (Homo sapiens, UniProt P27361); conditions: 1 µM; binder
# RIOK3 = RIOK3 (Homo sapiens, UniProt O14730); conditions: 1 µM; binder
# SRPK1 = SRPK1 (Homo sapiens, UniProt Q96SB4); conditions: 1 µM; binder
# PRKD3 = PRKD3 (Homo sapiens, UniProt O94806); conditions: 1 µM; binder
# MAP4K3 = MAP4K3 (Homo sapiens, UniProt Q8IVH8); conditions: 1 µM; binder
# KIT(V559D) = KIT(V559D) (Homo sapiens, UniProt P10721, V559D); conditions: 1 µM; binder
# MET(M1250T) = MET(M1250T) (Homo sapiens, UniProt P08581, M1250T); conditions: 1 µM; binder
# MINK = MINK (Homo sapiens, UniProt Q8N4C8); conditions: 1 µM; binder
# TAOK2 = TAOK2 (Homo sapiens, UniProt Q9UL54); conditions: 1 µM; binder
# p38-alpha = p38-alpha (Homo sapiens, UniProt Q16539); conditions: 1 µM; binder
# ALK(C1156Y) = ALK(C1156Y) (Homo sapiens, UniProt Q9UM73, C1156Y); conditions: 1 µM; binder
# FGR = FGR (Homo sapiens, UniProt P09769); conditions: 1 µM; binder
# ERN1 = ERN1 (Homo sapiens, UniProt O75460); conditions: 1 µM; binder
# GRK3 = GRK3 (Homo sapiens, UniProt P35626); conditions: 1 µM; binder
# VPS34 = VPS34 (Homo sapiens, UniProt Q8NEB9); conditions: 1 µM; binder
# PYK2 = PYK2 (Homo sapiens, UniProt Q14289); conditions: 1 µM; binder
# TTK = TTK (Homo sapiens, UniProt P33981); conditions: 1 µM; binder
# FLT3(D835V) = FLT3(D835V) (Homo sapiens, UniProt P36888, D835V); conditions: 1 µM; binder
# RET(M918T) = RET(M918T) (Homo sapiens, UniProt P07949, M918T); conditions: 1 µM; binder
# TAOK2, sequence (Q9UL54 whole entry): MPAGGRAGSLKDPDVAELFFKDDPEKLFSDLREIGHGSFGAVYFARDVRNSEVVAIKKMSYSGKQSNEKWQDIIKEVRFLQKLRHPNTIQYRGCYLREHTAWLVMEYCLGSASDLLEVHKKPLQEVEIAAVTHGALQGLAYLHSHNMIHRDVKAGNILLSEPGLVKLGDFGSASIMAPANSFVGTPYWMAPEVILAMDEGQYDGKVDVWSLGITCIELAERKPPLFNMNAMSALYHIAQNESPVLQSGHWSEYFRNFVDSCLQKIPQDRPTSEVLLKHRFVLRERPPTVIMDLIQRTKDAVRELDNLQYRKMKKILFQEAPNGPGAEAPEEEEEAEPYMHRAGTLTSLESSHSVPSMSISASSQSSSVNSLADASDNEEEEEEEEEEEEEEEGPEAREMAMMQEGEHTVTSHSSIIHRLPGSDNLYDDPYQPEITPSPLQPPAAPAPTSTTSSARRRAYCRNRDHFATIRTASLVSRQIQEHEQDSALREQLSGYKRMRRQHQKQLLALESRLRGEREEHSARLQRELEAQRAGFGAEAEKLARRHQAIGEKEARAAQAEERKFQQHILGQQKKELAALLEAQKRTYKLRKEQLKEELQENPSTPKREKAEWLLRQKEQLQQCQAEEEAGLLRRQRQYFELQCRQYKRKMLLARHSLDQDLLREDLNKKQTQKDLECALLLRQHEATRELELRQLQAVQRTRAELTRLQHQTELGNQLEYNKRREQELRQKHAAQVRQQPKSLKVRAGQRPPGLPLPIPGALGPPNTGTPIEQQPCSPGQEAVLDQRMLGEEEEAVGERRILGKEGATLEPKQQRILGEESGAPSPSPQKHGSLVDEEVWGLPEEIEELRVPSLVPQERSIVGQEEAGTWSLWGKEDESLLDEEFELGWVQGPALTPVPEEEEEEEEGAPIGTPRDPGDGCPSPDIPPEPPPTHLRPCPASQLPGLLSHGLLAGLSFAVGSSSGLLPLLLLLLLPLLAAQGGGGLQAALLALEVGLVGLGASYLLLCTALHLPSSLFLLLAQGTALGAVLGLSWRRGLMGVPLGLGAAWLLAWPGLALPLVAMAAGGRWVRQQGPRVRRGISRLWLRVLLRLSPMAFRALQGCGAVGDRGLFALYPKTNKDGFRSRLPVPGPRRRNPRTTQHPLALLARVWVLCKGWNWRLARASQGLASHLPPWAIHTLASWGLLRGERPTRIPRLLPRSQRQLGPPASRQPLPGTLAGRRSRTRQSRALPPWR
# VPS34, sequence (Q8NEB9 whole entry): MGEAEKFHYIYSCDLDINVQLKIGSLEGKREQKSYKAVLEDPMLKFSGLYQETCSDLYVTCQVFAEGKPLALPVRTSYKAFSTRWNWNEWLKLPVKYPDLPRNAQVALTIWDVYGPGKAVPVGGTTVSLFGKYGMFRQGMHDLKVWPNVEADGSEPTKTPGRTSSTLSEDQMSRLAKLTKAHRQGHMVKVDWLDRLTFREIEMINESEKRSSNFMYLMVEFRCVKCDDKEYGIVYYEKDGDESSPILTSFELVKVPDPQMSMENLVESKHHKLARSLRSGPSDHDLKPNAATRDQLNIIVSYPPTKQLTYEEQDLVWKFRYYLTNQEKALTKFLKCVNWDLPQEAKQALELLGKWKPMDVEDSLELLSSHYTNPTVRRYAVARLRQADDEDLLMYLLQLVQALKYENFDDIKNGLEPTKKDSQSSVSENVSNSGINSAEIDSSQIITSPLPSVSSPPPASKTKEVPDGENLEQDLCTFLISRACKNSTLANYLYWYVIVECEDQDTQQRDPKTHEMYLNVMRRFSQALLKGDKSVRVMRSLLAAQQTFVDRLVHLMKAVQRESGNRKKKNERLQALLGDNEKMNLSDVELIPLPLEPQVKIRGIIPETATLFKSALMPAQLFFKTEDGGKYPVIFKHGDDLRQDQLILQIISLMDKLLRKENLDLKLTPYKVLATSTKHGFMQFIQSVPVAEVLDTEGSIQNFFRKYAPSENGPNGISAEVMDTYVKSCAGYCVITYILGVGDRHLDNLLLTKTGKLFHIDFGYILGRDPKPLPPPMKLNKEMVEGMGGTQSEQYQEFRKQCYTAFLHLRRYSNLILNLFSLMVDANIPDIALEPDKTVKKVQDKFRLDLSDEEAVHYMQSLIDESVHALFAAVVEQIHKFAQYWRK
# ALK(C1156Y), sequence (Q9UM73 whole entry C1156Y): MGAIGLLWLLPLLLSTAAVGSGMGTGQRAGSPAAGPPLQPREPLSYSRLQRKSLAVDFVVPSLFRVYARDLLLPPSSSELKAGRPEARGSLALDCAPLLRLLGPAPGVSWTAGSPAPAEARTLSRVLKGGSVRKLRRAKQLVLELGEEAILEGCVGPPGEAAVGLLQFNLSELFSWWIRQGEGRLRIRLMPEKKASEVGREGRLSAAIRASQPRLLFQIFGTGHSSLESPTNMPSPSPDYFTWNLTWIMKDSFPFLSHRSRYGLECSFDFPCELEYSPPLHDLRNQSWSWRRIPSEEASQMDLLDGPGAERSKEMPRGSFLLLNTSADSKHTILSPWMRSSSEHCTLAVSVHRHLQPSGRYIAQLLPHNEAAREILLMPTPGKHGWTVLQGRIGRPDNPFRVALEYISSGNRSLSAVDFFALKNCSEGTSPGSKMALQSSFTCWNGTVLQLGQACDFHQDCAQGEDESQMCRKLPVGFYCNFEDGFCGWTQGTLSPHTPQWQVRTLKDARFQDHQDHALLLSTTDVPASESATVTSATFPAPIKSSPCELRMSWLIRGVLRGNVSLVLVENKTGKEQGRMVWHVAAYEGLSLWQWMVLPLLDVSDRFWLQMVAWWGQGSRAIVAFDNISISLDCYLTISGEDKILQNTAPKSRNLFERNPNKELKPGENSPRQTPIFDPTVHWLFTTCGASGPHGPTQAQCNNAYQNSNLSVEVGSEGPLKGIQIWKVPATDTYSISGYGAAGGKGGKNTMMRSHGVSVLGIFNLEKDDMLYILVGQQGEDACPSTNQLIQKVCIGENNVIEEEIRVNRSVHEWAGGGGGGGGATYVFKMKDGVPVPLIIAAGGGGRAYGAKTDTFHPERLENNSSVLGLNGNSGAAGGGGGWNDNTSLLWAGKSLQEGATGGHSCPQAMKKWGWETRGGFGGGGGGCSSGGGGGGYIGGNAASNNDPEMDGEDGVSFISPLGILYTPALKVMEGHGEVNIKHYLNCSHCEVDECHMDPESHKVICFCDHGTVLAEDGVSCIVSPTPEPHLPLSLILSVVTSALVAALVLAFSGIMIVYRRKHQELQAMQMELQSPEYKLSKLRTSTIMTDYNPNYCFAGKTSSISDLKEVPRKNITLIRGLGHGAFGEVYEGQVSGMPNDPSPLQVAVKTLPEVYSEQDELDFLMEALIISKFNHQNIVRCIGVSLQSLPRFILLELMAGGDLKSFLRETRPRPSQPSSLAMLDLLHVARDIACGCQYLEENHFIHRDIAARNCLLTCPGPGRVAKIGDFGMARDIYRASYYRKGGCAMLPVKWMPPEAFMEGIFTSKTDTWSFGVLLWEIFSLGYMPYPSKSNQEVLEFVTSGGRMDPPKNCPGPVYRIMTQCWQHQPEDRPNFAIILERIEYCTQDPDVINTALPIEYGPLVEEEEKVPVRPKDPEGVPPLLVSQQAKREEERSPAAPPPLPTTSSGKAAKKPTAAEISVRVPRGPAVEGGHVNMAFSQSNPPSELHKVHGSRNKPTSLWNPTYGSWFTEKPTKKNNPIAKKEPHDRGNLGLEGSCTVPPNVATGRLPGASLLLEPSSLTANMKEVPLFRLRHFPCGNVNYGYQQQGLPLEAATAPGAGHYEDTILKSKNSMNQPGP
# TTK, sequence (P33981 whole entry): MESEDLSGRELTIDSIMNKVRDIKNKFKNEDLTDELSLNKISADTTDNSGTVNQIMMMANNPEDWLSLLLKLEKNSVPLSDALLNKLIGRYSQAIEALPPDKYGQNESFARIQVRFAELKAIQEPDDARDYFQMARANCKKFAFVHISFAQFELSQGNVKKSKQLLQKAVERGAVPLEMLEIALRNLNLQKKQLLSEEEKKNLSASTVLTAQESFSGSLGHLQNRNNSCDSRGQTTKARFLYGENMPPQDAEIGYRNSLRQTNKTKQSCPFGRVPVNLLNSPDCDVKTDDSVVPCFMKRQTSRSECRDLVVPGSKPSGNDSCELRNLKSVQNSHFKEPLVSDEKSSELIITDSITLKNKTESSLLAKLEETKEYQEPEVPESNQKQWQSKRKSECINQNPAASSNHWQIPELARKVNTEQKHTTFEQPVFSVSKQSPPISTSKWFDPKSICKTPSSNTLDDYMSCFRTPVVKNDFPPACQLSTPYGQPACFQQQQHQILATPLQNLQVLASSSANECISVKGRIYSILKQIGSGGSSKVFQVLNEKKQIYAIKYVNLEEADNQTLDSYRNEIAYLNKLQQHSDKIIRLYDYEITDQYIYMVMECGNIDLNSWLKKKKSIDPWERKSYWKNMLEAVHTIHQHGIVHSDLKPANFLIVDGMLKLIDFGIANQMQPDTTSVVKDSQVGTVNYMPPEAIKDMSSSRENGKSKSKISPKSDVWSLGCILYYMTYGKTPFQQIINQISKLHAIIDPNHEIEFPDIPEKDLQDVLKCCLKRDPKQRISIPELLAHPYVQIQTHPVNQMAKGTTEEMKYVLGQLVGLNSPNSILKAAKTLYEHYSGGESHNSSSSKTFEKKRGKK
# CDK19, sequence (Q9BWU1 whole entry): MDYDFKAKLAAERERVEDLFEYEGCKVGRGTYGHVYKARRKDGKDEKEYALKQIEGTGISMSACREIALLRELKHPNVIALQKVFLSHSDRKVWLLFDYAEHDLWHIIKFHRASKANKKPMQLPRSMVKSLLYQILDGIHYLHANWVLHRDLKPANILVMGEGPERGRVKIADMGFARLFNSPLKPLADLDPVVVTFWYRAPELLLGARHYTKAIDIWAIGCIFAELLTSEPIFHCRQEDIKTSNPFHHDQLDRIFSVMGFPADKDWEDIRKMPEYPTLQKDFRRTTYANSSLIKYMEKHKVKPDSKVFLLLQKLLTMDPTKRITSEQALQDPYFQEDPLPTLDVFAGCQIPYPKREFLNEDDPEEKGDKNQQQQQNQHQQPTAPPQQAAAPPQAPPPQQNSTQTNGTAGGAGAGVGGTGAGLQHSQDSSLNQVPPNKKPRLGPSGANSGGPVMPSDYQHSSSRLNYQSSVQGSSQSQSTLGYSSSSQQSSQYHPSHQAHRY
structure (smiles),measurement,setting,value
"CNc1ncc2cc(-c3ccc(-c4cccc(C)n4)cc3Cl)c(=O)n(C[C@H]3OC[C@H](N)CO3)c2n1 [compound 6, G-5555]",Percent Control,MKNK1,100%
same,Percent Control,MKNK2,97%
same,Percent Control,ARK5,24%
same,Percent Control,JAK3,90%
same,Percent Control,ACVR2A,100%
same,Percent Control,MAP4K5,5.3%
same,Percent Control,CDK19,100%
same,Percent Control,BTK,63%
same,Percent Control,EPHA7,100%
same,Percent Control,ASK1,71%
same,Percent Control,SNRK,89%
same,Percent Control,ERK1,74%
same,Percent Control,RIOK3,90%
same,Percent Control,SRPK1,98%
same,Percent Control,PRKD3,20%
same,Percent Control,MAP4K3,23%
same,Percent Control,KIT(V559D),100%
same,Percent Control,MET(M1250T),45%
same,Percent Control,MINK,26%
same,Percent Control,TAOK2,100%
same,Percent Control,p38-alpha,100%
same,Percent Control,ALK(C1156Y),100%
same,Percent Control,FGR,100%
same,Percent Control,ERN1,100%
same,Percent Control,GRK3,72%
same,Percent Control,VPS34,100%
same,Percent Control,PYK2,100%
same,Percent Control,TTK,97%
same,Percent Control,FLT3(D835V),67%
same,Percent Control,RET(M918T),100%
